This is an account of results in PubChem BioAssay (NCI).

Among the test systems are DLD-1 colon; DMS 114 small cell lung; HOP-18 NSCLC; LXFL 529 NSCLC; M19-MEL melanoma; SNB-78 CNS; XF 498 CNS; MDA-N; KM20L2 colon; RXF-631 renal; DMS 273 small cell lung.
Test in all cases: inhibition of tumour cell growth, NCI panel, 48 h

“And” between values parts separate entries of the source, which are not always exact repeats. Identical values can stand only once.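 Assay format: 96-well plates, 48-hour exposure. At the TGI there is no net growth.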 Some results are limits rather than exact numbers.

As for `O=C(NN1C(=O)C(Cl)C1c1ccccc1Cl)c1ccccc1O` (centres undefined), the TGI with DLD-1 colon, in the experiment on DMS 114 small cell lung, in the experiment on HOP-18 NSCLC, in the experiment with LXFL 529 NSCLC, with M19-MEL melanoma and in the experiment with SNB-78 CNS was greater than 100 µM throughout. Moreover, the TGI with XF 498 CNS was greater than 100 µM.

In turn, `O=C(NNS(=O)(=O)c1ccccc1)c1csc(NC(=S)NC2CCCCC2)n1` registered a TGI in the experiment with MDA-N of 40.2 µM.

Compound `CCOC(=O)C(NC(=O)CC)(Nc1ccc(S(=O)(=O)Nc2ccc(OC)nn2)cc1)C(F)(F)F` (centres undefined) showed a TGI in the experiment on MDA-N greater than 100 µM.

In turn, `OC1(c2ccc(Cl)cc2)c2c(c3ccccc3c3ccccc23)C2=NCCN21` (centres undefined) returned a TGI in the experiment on MDA-N of 51.1 µM.

`CCCCOc1ccc2c(c1)CC[C@@H]1[C@@H]2CC[C@]2(C)C(=O)N(CCCC)C(=O)C[C@@H]12` returned a TGI in the experiment on MDA-N greater than 100 µM.

Regarding `O=C1c2cccnc2-c2nccc3c2c1nc1ccc(Br)cc13`, the TGI in the experiment with MDA-N came out at 0.249 µM.

Compound `O=c1c2cc(I)ccc2nc(SCc2nnco2)n1Cc1ccccc1` showed a TGI with MDA-N greater than 100 µM.

As for `O=C1c2cc3c(cc2CC1Cc1ccc2c(c1)CCC2)CCC3` (centres undefined), in the experiment on MDA-N, the TGI is greater than 100 µM.

As for `CC1=CC(=O)/C(=C/n2c(=S)[nH]c3cc(C)ccc32)C(=O)O1`, the TGI with MDA-N is greater than 100 µM.

Take `O=S(c1ccc(Cl)cc1)c1ccccc1C1=NCCN1` (centres undefined): the TGI in the experiment on MDA-N was greater than 100 µM.

`COc1cccc([C@@H]2CC(=O)c3cc4c(cc3N2)OCO4)c1` had a TGI in the experiment on MDA-N greater than 100 µM.

For `CC1(C)CN=CC(C)(OCc2ccccc2)C(=O)NC(C)(C)CN=CC(C)(OCc2ccccc2)C(=O)N1` (centres undefined), the TGI in the experiment on MDA-N was greater than 10 µM.

Turning to `O=C1CCCCN1C(=O)c1ccc([N+](=O)[O-])cc1`, the TGI in the experiment on MDA-N is greater than 100 µM.

Consider `Cn1c(COC(=O)NC2CCCCC2)c(COC(=O)NC2CCCCC2)c2ccc3cc(C=O)ccc3c21`, for which the TGI in the experiment on MDA-N was greater than 100 µM.

Compound `CC1C(C#N)(C#N)C(C#N)=C(N)C1(C)[N+](=O)[O-]` (centres undefined) yielded a TGI with MDA-N greater than 100 µM.

In turn, `CCN(CC)C1Oc2cc3c(cc2C(c2cccc(OC)c2O)C1C)OCO3` (centres undefined) yielded a TGI with MDA-N of 5.82 µM.

For `C[N+](C)(C)CC(=O)N/N=C(/Cc1nc2ccc([N+](=O)[O-])cc2[nH]c1=O)C(=O)Nc1cc(C(F)(F)F)ccc1Cl`, the TGI with DLD-1 colon, in the experiment on DMS 114 small cell lung, in the experiment with KM20L2 colon, with M19-MEL melanoma and with RXF-631 renal was greater than 100 µM throughout.

`O=S1(=O)OCCCOS(=O)(=O)C1(Br)Br` showed a TGI in the experiment on MDA-N greater than 100 µM.

As to `CCC(=O)N1C(=O)C(CC)(CC)C(=O)N1C(=O)CC`, in the experiment on MDA-N, the TGI is greater than 100 µM.

In the experiment on MDA-N, `CC(C)=CCC[C@@H](C)C1=CC(=O)C(C)=C(O)C1=O` yielded a TGI of 16.6 µM.

The compound `COc1ccc(C2=NNC(c3cc4cc(Br)ccc4nc3Cl)C2)cc1` (centres undefined) had a TGI in the experiment with MDA-N of 17.8 µM.

On to `O=C(Nc1ccc(Sc2ccc(N=Nc3c(O)c(S(=O)(=O)O)cc4cc(S(=O)(=O)O)ccc34)cc2)cc1)c1ccc(N=Nc2c(O)c(S(=O)(=O)O)cc3cc(S(=O)(=O)O)ccc23)cc1`, for which the TGI in the experiment on DLD-1 colon was greater than 100 µM; with DMS 114 small cell lung, 42.9 µM; with DMS 273 small cell lung it was greater than 100 µM; with HOP-18 NSCLC, 79.7 µM; in the experiment with KM20L2 colon, greater than 100 µM; in the experiment on LXFL 529 NSCLC, greater than 100 µM. Besides, the TGI in the experiment with M19-MEL melanoma, in the experiment with SNB-78 CNS and with XF 498 CNS was greater than 100 µM in each case.

`CS(=O)(=O)OCC1CCCCCCCCCCC12SCCCS2` (centres undefined) came in with a TGI in the experiment on MDA-N greater than 100 µM.

On to `CO[C@]12CC(=O)C3(C(C[C@H]4CC5CC[C@H]6C[C@@H](OC(C)=O)CC[C@]6(OC(C)=O)C5C[C@@]43C)C1)C1C[C@H]3[C@@H]4CC[C@H]5C[C@@H](OC(C)=O)CC[C@]5(OC(C)=O)[C@H]4CC[C@]3(C)C12` (some centres undefined), for which the TGI with MDA-N is greater than 100 µM.

Compound `Cc1ccc2c(=O)cc(Cc3csc4ccccc34)[nH]c2n1` yielded a TGI in the experiment with MDA-N greater than 100 µM.

Consider `COc1cc2c(c(OC)c1OC)-c1ccc(SC)c(=O)cc1[C@@H](NC(=O)c1ccc([N+](=O)[O-])cc1)CC2`, for which the TGI is 25 µM and > 100 µM in the experiment with DLD-1 colon; 0.89 µM in the experiment with DMS 114 small cell lung; 25 µM and > 100 µM with DMS 273 small cell lung; 25 µM and > 100 µM with M19-MEL melanoma; greater than 100 µM in the experiment with RXF-631 renal; 25 µM in the experiment with SNB-78 CNS. The same compound showed a TGI with XF 498 CNS of 25 µM.

As to `COC1=CC(=O)c2nc3ccccc3c3ccnc1c23`, the TGI in the experiment with MDA-N turned out to be 0.448 µM.

Compound `CCN(CC)c1ccc2cc(C(N)=O)c(=Nc3ccc(F)cc3)oc2c1` showed a TGI in the experiment on MDA-N greater than 100 µM.

In turn, `COC12C=CC(CC1)C(C)(C)C2OS(C)(=O)=O` (centres undefined) had a TGI in the experiment with MDA-N greater than 100 µM.

In the case of `C=CCOCn1ccc(N)nc1=O`, the TGI in the experiment with MDA-N is greater than 100 µM.

`CC(=O)OCC1OC(n2c(N)c(C#N)c(-c3cccc(Cl)c3)c(C#N)c2=S)C(OC(C)=O)C(OC(C)=O)C1OC(C)=O` (centres undefined) had a TGI in the experiment with MDA-N of 54.7 µM.

Regarding `O=C(N[C@H]1CCC[C@H]1C(=O)Nc1ccc(C(F)(F)F)cc1)OCc1ccccc1`, in the experiment with MDA-N, the TGI is greater than 100 µM.

For `O=C(/C=C/c1ccccc1)Oc1cccc(Br)c1`, the TGI in the experiment on MDA-N was greater than 100 µM.

Compound `COc1cc([C@@H]2c3cc4c(cc3[C@@H](c3c(O)cc(O)c5c3O[C@H](c3ccc(O)c(O)c3)[C@H](OC(=O)c3cc(O)c(O)c(O)c3)C5)[C@H]3COC(=O)[C@H]23)OCO4)cc(OC)c1O` came in with a TGI in the experiment with MDA-N greater than 100 µM.

The compound `COc1cc(S(=O)(=O)Nc2ccc(-c3csc(N4C(=O)C(C)SC4c4ccccc4)n3)cc2)ccc1Cl` (centres undefined) had a TGI in the experiment on MDA-N greater than 100 µM.

Compound `Cc1cc2oc3c(ccc(=O)n3C)c(=O)c2c(C)c1Cl` registered a TGI with MDA-N greater than 100 µM.

For `Cn1cnc(SC2=C3C(=O)C=C4S[C@H]5C[C@]42c2c(c(O)c4c6c2=[N+]3CCC=6C=N4)N5)c1CC(N)C(=O)O` (some centres undefined), the TGI in the experiment with DLD-1 colon is 31.4 µM; in the experiment with DMS 114 small cell lung it was 6.11 µM; in the experiment on DMS 273 small cell lung, 26 µM; in the experiment with HOP-18 NSCLC, greater than 100 µM; with KM20L2 colon, 16.6 µM; in the experiment with LXFL 529 NSCLC, 27.1 µM. Moreover, the figures for the TGI with M19-MEL melanoma, in the experiment with SNB-78 CNS and with XF 498 CNS were 21.5 µM, 40.9 µM and 28.7 µM, respectively.
